According to patent US4536402A, “Vinylogous carboxamides” (Dr. Karl Thomae Gesellschaft mit beschranter Haftung, priority 1982, dated 1985):
Read-outs that look alike come from different tables or passages of the source. Blank lines part the entries; values can stand above or below the compound they belong to.

Tests used:
[1] = system: tonic extensor spasm in the back legs of male mice subjected to maximum electric shock; assay: Anticonvulsant activity in mice: inhibition of tonic extensor spasm after maximum electric shock; type: in vivo, male SPF mice (Chbb:NMRI); settings: Mus musculus, oral
Description: The anticonvulsant activity was tested by measuring the inhibition of tonic extensor spasm in the back legs of male mice subjected to maximum electric shock.
The test animals used were male SPF mice (Chbb:NMRI) weighing from 20-26 gm which had access to standard food and drinking water up to one hour before the oral administration of the test substance.
The test was carried out using the method described by Swinyard, Brown and Goodman (J. Pharmacol. Exp. Ther. 106, 319, [1952]). The electric shock apparatus was constructed in accordance with the specifications provided by Woodbury and Davenport (Arch. Int. Pharmacodyn. 92, 97, [1952]). The electrical stimuli were administered to the animals' temples above their eyes, through steel ball electrodes covered with chamois and moistened with 0.9% NaCl solution. The stimuli were administered using alternating current, 50 Hz and 50 mA, with a duration of 0.2 sec.
The substance to be tested was suspended in 1% tylose mucilage and administered orally in a volume of 0.1 ml/10 gm body weight of the mice, each dosage being administered to 10 mice. The animals were given the shocks 30, 150 and 300 minutes after the administration of the test substance, and the ED50 values were determined graphically or by using the method of Litchfield and Wilcoxon (J. Pharmacol. Exp. Ther. 96, 99, [1949]) from the dosage which protects 50% of the animals from the tonic extension spasm of the rear extremities.

[2] = system: tonic extensor spasms in the back legs of male rats subjected to maximum electric shock; assay: Anticonvulsant activity in rats: inhibition of tonic extensor spasms after maximum electric shock; type: in vivo, male SPF rats (Chbb:THOM); settings: for % protected / animals protected: N=6, one hour
Description: The anticonvulsant activity was tested by measuring the inhibition of tonic extensor spasms in the back legs of male rats subjected to maximum electric shock.
The test animals used were male SPF rats (Chbb:THOM) weighing from 100-120 gm which had access to standard food and drinking water up to one hour before the oral administration of the test substance.
The test was carried out using the method described by Swinyard, Brown and Goodman (J. Pharmacol. Exp. Ther. 106, 319, [1952]). The electric shock apparatus was constructed in accordance with the specifications provided by Woodbury and Davenport (Arch. Int. Pharmacodyn. 92, 97 [1952]). The electrical stimuli were applied to the temples above the eyes, using moistened steel ball electrodes. The parameters of the stimuli were as follows: alternating current 50 Hz, 50 mA, duration of stimulus 0.2 sec. In all the control animals, clonic and then tonic extension spasm of the extremities occurred; the latter can be prevented by means of effective anticonvulsant agents.
The substance to be tested was suspended in 2% tylose mucilage and administered orally, in a volume of 1 ml/100 gm body weight of the rat, in dosages of 1.56, 3.125, 6.25 and 12.5 mg/kg, each dose being administered to 6 rats. One hour later, the animals were subjected to electric shock and the ED50 was calculated as the dosage which protected 50% of the animals against tonic extension spasms in the rear extremities, with confidence limits for a 5% probability of error.

[3] = Approximate acute toxicity in mice, p.o.; type: in vivo; settings: in vivo; mouse, oral, 14 days
Description: (§1) Approximate acute toxicity in mice, compound A, p.o.

[4] = system: mice; assay: Approximate acute toxicity in mice, p.o.; type: in vivo; settings: for Number of animals which died in 14 days: mice
Description: as §1

[5] = Acute toxicity in the rat, p.o.; type: in vivo; settings: in vivo; for mortality at 336 h: N=10, read-out: Animals which died in 14 days, %
Description: (§2) Acute toxicity in the rat, compound A, p.o.

[6] = system: rat; assay: Acute toxicity in the rat, p.o.; type: in vivo; settings: for Animals which died in 14 days: N=10
Description: as §2

[7] = system: fatty and cartilaginous tissue (kidney fat and sternum); assay: Tests for yellow coloration of fatty and cartilaginous tissue in the rat; type: in vivo, male rats, Chbb:THOM (SPF)
Description: The yellow coloration of fatty and cartilaginous tissue following the oral administration of 50 and 400 mg/kg of compound E and compound A once a day over a period of 51/2 weeks was investigated. The compounds were homogeneously suspended in 1.5% tylose by several hours' stirring. The compounds were administered through an esophageal tube. The volume administered was about 1.4 ml. 9 to 11 male rats [of the Chbb:THOM (SPF) strain] with a body weight of 263±10 gm were used for each dose. At different times, animals were taken from the four treated groups and one control group and the kidney fat and sternum were removed after the animal had been bled from the abdominal aorta.

[8] = system: fatty and cartilaginous tissue (kidney fat and sternum); settings: known compound, general statement; cited from earlier work
[9] = 0.5 h, shock 30 minutes after administration
[10] = 2.5 h, shock 150 minutes after administration
[11] = 5 h, shock 300 minutes after administration
[12] = 50 mg/kg oral once a day, 17 days
[13] = 50 mg/kg oral once a day, 36 days
[14] = 50 mg/kg oral once a day, 38 days
[15] = 50 mg/kg oral once a day, 39 days
[16] = 400 mg/kg oral once a day, 2 days
[17] = 400 mg/kg oral once a day, 4 days
[18] = 400 mg/kg oral once a day, 9 days
[19] = 400 mg/kg oral once a day, 17 days
[20] = 400 mg/kg oral once a day, 36 days
[21] = 400 mg/kg oral once a day, 38 days
[22] = 400 mg/kg oral once a day, 39 days

Compound: CCN/C(=C1\C(=O)c2ccccc2[S+]1[O-])c1ccccc1 (centres unmarked) [C, (E)-2-[(ethylamino)phenylmethylene]-benzo[b]thiophen-3(2H)-one-1-oxide]
ED50 [1, 9]: 17.1 mg/kg
ED50 [1, 10]: 61 mg/kg
ED50 [1, 11]: 93.9 mg/kg

Compound: N/C(=C1\C(=O)c2ccccc2[S+]1[O-])c1ccccc1 (centres unmarked) [Compound A, (E)-2-[(amino)phenylmethylene]-benzo[b]thiophen-3(2H)-one-1-oxide]
ED50 [1, 9]: 12.5 mg/kg
ED50 [1, 10]: 35 mg/kg
ED50 [1, 11]: 88 mg/kg
% protected ([2]; 1.56 mg/kg p.o.): 0%
animals protected ([2]; 1.56 mg/kg p.o.): 0 animals
% protected ([2]; 3.125 mg/kg p.o.): 67%
animals protected ([2]; 3.125 mg/kg p.o.): 4 animals
% protected ([2]; 6.25 mg/kg p.o.): 83%
animals protected ([2]; 6.25 mg/kg p.o.): 5 animals
% protected ([2]; 12.5 mg/kg p.o.): 100%
animals protected ([2]; 12.5 mg/kg p.o.): 6 animals
ED50 ([2]; Rattus norvegicus, 1 h, oral, one hour, read-out: ED50 (confidence limits, p≤0.05)): 3.25 mg/kg
LD50 at 336 h [3]: > 4000 mg/kg
Number of animals which died in 14 days ([4]; 500 mg/kg p.o., N=10): 0 animals
Number of animals which died in 14 days ([4]; 1000 mg/kg p.o., N=16): 1 animals
Number of animals which died in 14 days ([4]; 1410 mg/kg p.o., N=10): 0 animals
Number of animals which died in 14 days ([4]; 2000 mg/kg p.o., N=10): 2 animals
Number of animals which died in 14 days ([4]; 4000 mg/kg p.o., N=10): 1 animals
tolerance ([4]; mouse, in vivo, po): well tolerated
LD50 at 336 h ([5]; oral, 14 days, read-out: LD50 (confidence limits, p≤0.05)): 2600 mg/kg
mortality at 336 h ([5]; po, 1000 mg/kg p.o.): 0%
mortality at 336 h ([5]; po, 2000 mg/kg p.o.): 40%
mortality at 336 h ([5]; po, 4000 mg/kg p.o.): 70%
therapeutic index (LD50/ED50) ([5]; po, LD50 / ED50, read-out: average toxic dose relative to average therapeutic dose): 800
Animals which died in 14 days ([6]; 1000 mg/kg p.o.): 0 animals
Animals which died in 14 days ([6]; 2000 mg/kg p.o.): 4 animals
Animals which died in 14 days ([6]; 4000 mg/kg p.o.): 7 animals
toxic effects ([6]; in vivo, po): only had toxic effects in very large dosages
Number of animals with yellow kidney fat and sternum (number of animals dissected in brackets) [7, 12]: 0 (1) animals
Number of animals with yellow kidney fat and sternum (number of animals dissected in brackets) [7, 13]: 0 (1) animals
Number of animals with yellow kidney fat and sternum (number of animals dissected in brackets) [7, 14]: 0 (1) animals
Number of animals with yellow kidney fat and sternum (number of animals dissected in brackets) [7, 15]: 0 (6) animals
Number of animals with yellow kidney fat and sternum (number of animals dissected in brackets) [7, 16]: 0 (1) animals
Number of animals with yellow kidney fat and sternum (number of animals dissected in brackets) [7, 17]: 0 (1) animals
Number of animals with yellow kidney fat and sternum (number of animals dissected in brackets) [7, 18]: 0 (1) animals
Number of animals with yellow kidney fat and sternum (number of animals dissected in brackets) [7, 19]: 0 (1) animals
Number of animals with yellow kidney fat and sternum (number of animals dissected in brackets) [7, 20]: 0 (1) animals
Number of animals with yellow kidney fat and sternum (number of animals dissected in brackets) [7, 21]: 0 (1) animals
Number of animals with yellow kidney fat and sternum (number of animals dissected in brackets) [7, 22]: 0 (2) animals

Number of animals with yellow kidney fat and sternum (number of animals dissected in brackets) [7, 12]: 0 (1) animals
Number of animals with yellow kidney fat and sternum (number of animals dissected in brackets) [7, 13]: 0 (1) animals
Number of animals with yellow kidney fat and sternum (number of animals dissected in brackets) [7, 14]: 0 (1) animals
Number of animals with yellow kidney fat and sternum (number of animals dissected in brackets) [7, 15]: 0 (6) animals
Number of animals with yellow kidney fat and sternum (number of animals dissected in brackets) [7, 16]: 0 (1) animals
Number of animals with yellow kidney fat and sternum (number of animals dissected in brackets) [7, 17]: 0 (1) animals
Number of animals with yellow kidney fat and sternum (number of animals dissected in brackets) [7, 18]: 0 (1) animals
Number of animals with yellow kidney fat and sternum (number of animals dissected in brackets) [7, 19]: 1 (1) animals
degree of yellow coloration of kidney fat and sternum [7, 19]: very slight
Number of animals with yellow kidney fat and sternum (number of animals dissected in brackets) [7, 20]: 1 (1) animals
degree of yellow coloration of kidney fat and sternum [7, 20]: marked
Number of animals with yellow kidney fat and sternum (number of animals dissected in brackets) [7, 21]: 1 (1) animals
degree of yellow coloration of kidney fat and sternum [7, 21]: marked
Number of animals with yellow kidney fat and sternum (number of animals dissected in brackets) [7, 22]: 5 (5) animals
degree of yellow coloration of kidney fat and sternum [7, 22]: marked
yellow coloration of the kidney fat and sternum ([7]; 400 mg/kg, from the 17th day p.a.): slight at first but became marked later
Compound: N/C(=C1/Sc2ccccc2C1=O)c1ccccc1 [Compound E, (E)-2-[(amino)phenylmethylene]-benzo[b]thiophen-3(2H)-one]
undesirable side effect: yellow coloration of fatty and cartilaginous tissue [8]: strong yellow coloration

Compound: N/C(=C1\C(=O)c2ccccc2[S+]1[O-])c1ccccc1Cl (centres unmarked) [B, (E)-2-[(amino)-2-chlorophenylmethylene]-benzo[b]thiophen-3(2H)-one-1-oxide]
ED50 [1, 9]: 8.1 mg/kg
ED50 [1, 10]: 7.4 mg/kg
ED50 [1, 11]: 8.3 mg/kg
